Consider one compound from patent publication US8338414B2, “Immunosuppressive agent and anti-tumor agent comprising heterocyclic compound as active ingredient” (Zenyaku Kogyo KabushikiKaisha, priority 2005, dated 2012).

Structures are written as SMILES.

One may read the IC50 as the midpoint of a concentration-inhibition curve. Higher therefore signals weaker potency.

For data set [1], the system named is human peripheral blood mononuclear cells. Briefly: Proliferation inhibition assay for human peripheral blood mononuclear cells. The class given is cell-based. To be noted: Homo sapiens, 72 h; PBMC, anti-CD3 and anti-CD28 antibody, 3 days, Alamar Blue. In a few lines: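 PBMC from healthy donors (1×10^5 cells/mL) in RPMI 1640 with 10% FBS were stimulated with plate-bound anti-CD3 plus anti-CD28 (1 μg/mL). Serially diluted compounds were added and cells were cultured 3 days at 37 °C. Alamar Blue was then added for 1 day and fluorescence was read at ex 530/em 590 nm.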

Data set [2] shares this test system. Briefly: Activation inhibition assay for human peripheral blood mononuclear cells (CD40L, CD69 expression). The class given is cell-based. The note with it: PBMC, anti-CD3 + anti-CD28, 6 hours, flow cytometry. Here is the method: In accordance with the method of Assay Example 2, PBMC (2×10^6 cells/mL) was isolated from human peripheral blood, suspended in RPMI 1640 medium (containing 10% fetal bovine serum, 10 mM HEPES, 1 mM pyruvic acid, and 4.5 g/L glucose), and seeded in wells of a 96 well plate at 0.225 mL per well. The test substances were added to respective wells, and then an anti-CD3 antibody (2 μg/mL) and an anti-CD28 antibody (1 μg/mL) were added. Then, after incubation under conditions of carbon dioxide 5% at a temperature 37° C. for 6 hours, the expressions of CD40L and CD69, activation markers, were analysed by flow cytometry. As a result, when the cells were stimulated by both an anti-CD3 antibody and an anti-CD28 antibody, CD40L was expressed on 14.4% of PBMC, which was also CD4 positive. However, the proportion of the cells which expressed CD40L decreased when the cells had been treated with test substances (Compound 4: 4.9%; Compound 20: 3.7%, Compound 24: 3.6%).
In general terms: A flow cytometer gives signals particle by particle.

In data set [3] the test system is allogeneic mixed lymphocyte reaction. Briefly: Allogeneic mixed lymphocyte reaction. The note with it: Mus musculus, Lymphocyte; C57BL/6N spleen stimulator cells, BALB/c lymph node responder cells, 86 hours, BrdU. The class given is cell-based, mouse. Summed up:
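Stimulators were C57BL/6N female spleen cells and responders BALB/c female peripheral lymph node mononuclear cells (mice 8-10 weeks old). Cells suspended at 2×10^6 cells/mL in RPMI 1640 with 10% FBS and antibiotics.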

In data set [4] the test system is Daudi cells. Description: Proliferation inhibitory activity on hematologic neoplasm cells, Daudi. The class given is cell-based. The note with it: Homo sapiens, Daudi, 72 h; 3 days, Alamar Blue. For orientation: The colour change of resazurin is a common sign of viable cells or microbes.
In the next data set the test system is Jurkat cells. Briefly: Proliferation inhibitory activity on hematologic neoplasm cells, Jurkat. The class given is cell-based. To be noted: Homo sapiens, Jurkat, 72 h; 3 days, Alamar Blue.
The test system of another data set is HL 60 cells. Briefly: Proliferation inhibitory activity on hematologic neoplasm cells, HL60. The class given is cell-based. To be noted: Homo sapiens, HL-60, 72 h; 3 days, Alamar Blue.
Another data set deals with THP-1 cells. Description: Proliferation inhibitory activity on hematologic neoplasm cells, THP-1. The class given is cell-based. The note with it: Homo sapiens, THP-1, 72 h; 3 days, Alamar Blue.
For the next data set, the system named is U 937 cells. Briefly: Proliferation inhibitory activity on hematologic neoplasm cells, U937. To be noted: Homo sapiens, U-937, 72 h; 3 days, Alamar Blue. The class given is cell-based.
Data set [5] relates to Daudi cells. Briefly: Therapeutic action on human B lymphoma xenografted model. The class given is in vivo, mouse. To be noted: NOD/SCID mice, Daudi subcutaneous, 400 mg/kg oral after day 20. Here is the method:
Daudi cells (1×10^7 cells/mL) cultured in RPMI 1640 medium (containing 10% fetal bovine serum, 10 mM HEPES, 1 mM pyruvic acid, 4.5 g/L glucose, 100 units/mL penicillin, and 0.1 mg/mL streptomycin) were implanted subcutaneously in the chests of 8 week-old NOD/SCID mice. After day 20 when the tumor had grown to the volume of about 800 mm^3, Compound 4 (400 mg/kg) was administered orally.

The test system of another data set is fulminant hepatitis. Description: Fulminant hepatitis model (galactosamine and LPS). It counts as in vivo, mouse. To be noted: BALB/c mice, galactosamine 800 mg/kg and LPS 110 μg/kg i.p. Here is the method:
BALB/c male mice (7 weeks old, purchased from Charles River Laboratories Japan Inc.) were used in the experiment. After having orally administered the test substances suspended in 5% HPC, galactosamine (800 mg/kg) and LPS (110 μg/kg) were intraperitoneally administered. Then, survival rates at 72 hours after administration were obtained.

The nature of data set [6]: Toxicologic test for single oral administration. The note with it: rat, in vivo, po, 1200 mg/kg.
Data set [7] deals with Salmonella typhimurium TA98, TA100, TA1535, TA1537 and Escherichia coli WP2uvrA. Briefly: Ames test. It counts as cell-based. The note with it: preincubation method, with or without S-9, up to 5000 μg/flat plate. As for the experimental part: Using 5 strains of Salmonella typhimurium TA98, TA100, TA1535, TA1537 and Escherichia coli WP2uvrA, the test substances (Compound 4, Compound 19, Compound 22 and Compound 24) were tested for their mutagenesis according to a preincubation method.
(In general: In the Ames test, an excess of revertant colonies over the control signals mutagenicity.)

Consider `FC(F)c1nc2ccccc2n1-c1nc(N2CCOCC2)nc(N2CCOCC2)n1` [Compound 4, 2-(2-Difluoromethylbenzimidazol-1-yl)-4,6-dimorpholino-1,3,5-triazine], for which the IC50 is 312 nM in [1]; 218 nM in data set [3]; 105 nM with Daudi cells [4]; 1950 nM in the data set on Jurkat cells; 1120 nM in the data set with HL 60 cells; 511 nM with THP-1 cells. 3240 nM corresponded to half-maximal inhibition with U 937 cells (IC50). The “proportion of the cells which expressed CD40L” value in [2] (CD4 positive, 14.4% without test substance) is reported as 4.9%. In data set [2] (28.8% without test substance), the “proportion of CD4-positive cells which expressed CD69” value turned out to be 18.8%. Further, in [2] (50.9% without test substance), the “proportion of CD4-negative cells which expressed CD69” value is recorded as 17.7%. Moreover, the “increase in tumor volume” value in the data set on Daudi cells [5] was “inhibited”. In addition, the “Survival Rate after 72 Hours” value in the data set on fulminant hepatitis (50 mg/kg oral) came out at 60%; in the data set on fulminant hepatitis (100 mg/kg oral) it was 83%. The “death after single oral dose” value in data set [6] is reported as “no examples of death were recognized”. Further, in [7], the “mutagenesis (colony number of reverse mutation)” value was “negative”.
